Source: the NIST ThermoML archive (doi:10.1016/j.jct.2004.12.001)
Numbers after ± are expanded uncertainties.

What was measured:
[1] = 303.15 K, Liquid; for mass density: 101 kPa; for speed of sound: 101.33 kPa, Frequency=2 MHz
[2] = xn = mol fraction of the nth substance listed; settings: 303.15 K, 101 kPa, Liquid; for speed of sound: Frequency=2 MHz

c1ccccc1 [benzene]
mass density [1]: 872 ± 9 kg/m3
speed of sound [1]: 1257 ± 11 m/s

c1ccccc1 [benzene] + CC(CC(C)(C)C)CP(=O)(O)CC(C)CC(C)(C)C
speed of sound ([2]; x2 = 0): 1257 ± 11 m/s
mass density ([2]; x2 = 0): 872 ± 9 kg/m3

CC(CC(C)(C)C)CP(=O)(O)CC(C)CC(C)(C)C (stereo unspecified) [bis-(2,4,4-trimethylpentyl) phosphinic acid]
mass density [1]: 924.7 ± 12 kg/m3
speed of sound [1]: 1290.4 ± 17 m/s

CC(CC(C)(C)C)CP(=O)(O)CC(C)CC(C)(C)C (stereo unspecified) [bis-(2,4,4-trimethylpentyl) phosphinic acid] + Cc1ccccc1
speed of sound ([2]; x1 = 0.0781): 1266.5 ± 11 m/s
speed of sound ([2]; x1 = 0.1268): 1266.9 ± 11 m/s
speed of sound ([2]; x1 = 0.1843): 1267.5 ± 11 m/s
speed of sound ([2]; x1 = 0.2532): 1268.2 ± 11 m/s
speed of sound ([2]; x1 = 0.3371): 1269.2 ± 12 m/s
speed of sound ([2]; x1 = 0.4416): 1274.6 ± 12 m/s
speed of sound ([2]; x1 = 0.5755): 1278 ± 13 m/s
speed of sound ([2]; x1 = 0.7531): 1284 ± 15 m/s
speed of sound ([2]; x1 = 1): 1290.4 ± 17 m/s
mass density ([2]; x1 = 0.0781): 875.6 ± 9.1 kg/m3
mass density ([2]; x1 = 0.1268): 882.5 ± 9.2 kg/m3
mass density ([2]; x1 = 0.1843): 888 ± 9.3 kg/m3
mass density ([2]; x1 = 0.2532): 893.8 ± 9.4 kg/m3
mass density ([2]; x1 = 0.3371): 899.7 ± 9.6 kg/m3
mass density ([2]; x1 = 0.4416): 900.9 ± 9.8 kg/m3
mass density ([2]; x1 = 0.5755): 906.4 ± 10 kg/m3
mass density ([2]; x1 = 0.7531): 913.1 ± 11 kg/m3
mass density ([2]; x1 = 1): 924.7 ± 12 kg/m3

CC(CC(C)(C)C)CP(=O)(O)CC(C)CC(C)(C)C (stereo unspecified) [bis-(2,4,4-trimethylpentyl) phosphinic acid] + c1ccccc1
speed of sound ([2]; x1 = 0.0666): 1252.2 ± 11 m/s
speed of sound ([2]; x1 = 0.109): 1255.2 ± 11 m/s
speed of sound ([2]; x1 = 0.1599): 1258.1 ± 11 m/s
speed of sound ([2]; x1 = 0.2222): 1259.1 ± 11 m/s
speed of sound ([2]; x1 = 0.2999): 1261.3 ± 12 m/s
speed of sound ([2]; x1 = 0.3999): 1263.2 ± 12 m/s
speed of sound ([2]; x1 = 0.5332): 1266.8 ± 13 m/s
speed of sound ([2]; x1 = 0.7199): 1274.3 ± 14 m/s
speed of sound ([2]; x1 = 1): 1290.4 ± 17 m/s
mass density ([2]; x1 = 0.0666): 886.8 ± 9.2 kg/m3
mass density ([2]; x1 = 0.109): 891.9 ± 9.3 kg/m3
mass density ([2]; x1 = 0.1599): 895.6 ± 9.4 kg/m3
mass density ([2]; x1 = 0.2222): 901.1 ± 9.5 kg/m3
mass density ([2]; x1 = 0.2999): 904.9 ± 9.6 kg/m3
mass density ([2]; x1 = 0.3999): 908.4 ± 9.8 kg/m3
mass density ([2]; x1 = 0.5332): 912.3 ± 10 kg/m3
mass density ([2]; x1 = 0.7199): 915.3 ± 11 kg/m3
mass density ([2]; x1 = 1): 924.7 ± 12 kg/m3

Cc1ccccc1 [toluene]
mass density [1]: 866.7 ± 8.9 kg/m3
speed of sound [1]: 1271.9 ± 11 m/s

Cc1ccccc1 [toluene] + CC(CC(C)(C)C)CP(=O)(O)CC(C)CC(C)(C)C
speed of sound ([2]; x2 = 0): 1271.9 ± 11 m/s
mass density ([2]; x2 = 0): 866.7 ± 8.9 kg/m3
